For this test, the target named is GLP-1 Receptor (Homo sapiens, UniProt P43220). The test is described as follows: GLP-1R agonist cAMP stimulation assay (HEK293/GLP1R/CRE-LUC cells, cAMP dynamic 2 Kit). The test is classed as cell-based. The settings on record: HEK293/CRE-Luc cell line stably expressing the GLP-1 Receptor, 30 min at 37° C. Put shortly:
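cAMP measured by HTRF competition (d2-labelled cAMP with cryptate antibody, 1 h, room temperature, protected from light). Before that, GLP1R/CRE-Luc HEK293 cells (1000/well) were exposed for 30 min at 37 °C to half-log compound dilutions in DPBS containing IBMX 0.5 mM and BSA 0.1%.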
GLP-1 Receptor, sequence (P43220 24-463, species assumed): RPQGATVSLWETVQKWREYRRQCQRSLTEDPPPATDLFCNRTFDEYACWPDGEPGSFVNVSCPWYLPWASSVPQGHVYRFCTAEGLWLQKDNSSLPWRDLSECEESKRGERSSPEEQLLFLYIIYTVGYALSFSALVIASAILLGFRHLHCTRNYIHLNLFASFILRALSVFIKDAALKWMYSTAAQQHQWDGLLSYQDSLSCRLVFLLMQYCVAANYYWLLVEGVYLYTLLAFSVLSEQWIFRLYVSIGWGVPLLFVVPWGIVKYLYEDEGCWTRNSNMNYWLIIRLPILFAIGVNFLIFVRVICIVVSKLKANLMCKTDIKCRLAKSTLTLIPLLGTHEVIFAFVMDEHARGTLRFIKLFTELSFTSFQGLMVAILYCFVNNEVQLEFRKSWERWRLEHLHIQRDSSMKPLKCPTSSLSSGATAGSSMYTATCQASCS
As to `C[C@]1(c2ccc(Cl)cn2)Oc2cccc(C3CCN(Cc4nc5cc(-c6nnc(C#N)[nH]6)ncc5n4C[C@@H]4CCO4)CC3)c2O1` [Compound 481a, 5-[2-({4-[(2S)-2-(5-chloropyridin-2-yl)-2-methyl-2H-1,3-benzodioxol-4-yl]piperidin-1-yl}methyl)-3-{[(2S)-oxetan-2-yl]methyl}-3H-imidazo[4,5-c]pyridin-6-yl]-4H-1,2,4-triazole-3-carbonitrile], the EC50 came to 0.0048 nM.

In the case of `O=C(Nc1ccc2c(c1)nc(CN1CCC(c3cccc(OCc4ccc(Cl)cc4F)n3)CC1)n2C[C@@H]1CCO1)C1CC12CCC2` (stereo partly drawn) [Compound 193a, N-{2-[(4-{6-[(4-chloro-2-fluorophenyl)methoxy]pyridin-2-yl}piperidin-1-yl)methyl]-1-{[(2S)-oxetan-2-yl]methyl}-1H-1,3-benzodiazol-5-yl}spiro[2.3]hexane-1-carboxamide], it took 0.23 nM to reach a half-maximal effect (EC50).

`CC1(c2ccc(Cl)cc2F)Oc2cccc(C3CCN(Cc4nc5cc(-c6nnc(C(F)F)[nH]6)cnc5n4C[C@@H]4CCO4)CC3)c2O1` (stereo partly drawn) [Compound 244a, 4-[2-(4-chloro-2-fluorophenyl)-2-methyl-2H-1,3-benzodioxol-4-yl]-1-({6-[5-(difluoromethyl)-4H-1,2,4-triazol-3-yl]-3-{[(2S)-oxetan-2-yl]methyl}-3H-imidazo[4,5-b]pyridin-2-yl}methyl)piperidine] showed an EC50 of 0.14 nM.

Compound `Cc1nc(-c2nnc(C(F)(F)F)[nH]2)cc2nc(CN3CCC(c4cccc5c4O[C@@](C)(c4ccc(Cl)cc4F)O5)CC3)n(C[C@@H]3CCO3)c12` [Compound 302a, 4-[(2S)-2-(4-chloro-2-fluorophenyl)-2-methyl-2H-1,3-benzodioxol-4-yl]-1-[(4-methyl-3-{[(2S)-oxetan-2-yl]methyl}-6-[5-(trifluoromethyl)-4H-1,2,4-triazol-3-yl]-3H-imidazo[4,5-c]pyridin-2-yl)methyl]piperidine] registered an EC50 of 0.17 nM.

Take `C[C@]1(c2ccc(Cl)cc2F)Oc2cccc(C3CCN(Cc4nc5cc(-c6noc(=O)[nH]6)ncc5n4CC4(C#N)CC4)CC3)c2O1` [Compound 346a, 1-{[2-({4-[(2S)-2-(4-chloro-2-fluorophenyl)-2-methyl-2H-1,3-benzodioxol-4-yl]piperidin-1-yl}methyl)-6-(5-oxo-4,5-dihydro-1,2,4-oxadiazol-3-yl)-3H-imidazo[4,5-c]pyridin-3-yl]methyl}cyclopropane-1-carbonitrile]: the EC50 was determined as 0.015 nM.

In the case of `O=C(Nc1ccc2c(c1)nc(CN1CCC(c3cccc(OCc4ccccc4)n3)CC1)n2C[C@@H]1CCO1)c1cccnc1` [Compound 204a, N-[2-({4-[6-(benzyloxy)pyridin-2-yl]piperidin-1-yl}methyl)-1-{[(2S)-oxetan-2-yl]methyl}-1H-1,3-benzodiazol-5-yl]pyridine-3-carboxamide], the EC50 was 0.84 nM.

Compound `N#Cc1ccc(COc2cc(C3=CCN(Cc4nc5cc(-c6nnc(C(F)(F)F)[nH]6)ncc5n4C[C@@H]4CCO4)CC3)ccc2F)c(F)c1` [Compound 300a, 3-fluoro-4-[(2-fluoro-5-{1-[(3-{[(2S)-oxetan-2-yl]methyl}-6-[5-(trifluoromethyl)-4H-1,2,4-triazol-3-yl]-3H-imidazo[4,5-c]pyridin-2-yl)methyl]-1,2,3,6-tetrahydropyridin-4-yl}phenoxy)methyl]benzonitrile] yielded an EC50 of 0.1 nM. This EC50 lies about 8.4-fold lower than the previous one.

With `N#Cc1ccc(COc2cccc(C3CCN(Cc4nc5cc(-c6nnc(C(F)(F)F)[nH]6)nnc5n4C[C@@H]4CCO4)CC3)n2)c(F)c1` [Compound 487a, 3-fluoro-4-{[(6-{1-[(7-{[(2S)-oxetan-2-yl]methyl}-3-[5-(trifluoromethyl)-4H-1,2,4-triazol-3-yl]-7H-imidazo[4,5-c]pyridazin-6-yl)methyl]piperidin-4-yl}pyridin-2-yl)oxy]methyl}benzonitrile], the EC50 amounted to 0.029 nM.

For `N#Cc1ccc(COc2cc(C3CCN(Cc4nc5cc(-c6nnc(C(F)(F)F)[nH]6)ncc5n4C[C@@H]4CCO4)CC3)ccc2F)c(F)c1` [Compound 471a, 3-fluoro-4-[(2-fluoro-5-{1-[(3-{[(2S)-oxetan-2-yl]methyl}-6-[5-(trifluoromethyl)-4H-1,2,4-triazol-3-yl]-3H-imidazo[4,5-c]pyridin-2-yl)methyl]piperidin-4-yl}phenoxy)methyl]benzonitrile], the EC50 is 0.11 nM.

Consider `C[C@]1(c2ccc(Cl)cn2)Oc2cccc(C3CCN(Cc4nc5cc(-c6n[nH]c(C(F)(F)F)n6)cnc5n4C[C@@H]4CCO4)CC3)c2O1` (single isomer, unassigned) [Compound 333b], for which the EC50 turned out to be 0.029 nM.

Turning to `C[C@]1(c2ccc(Cl)cn2)Oc2cccc(C3CCN(Cc4nc5cc(-c6noc(=O)[nH]6)ncc5n4C[C@@H]4CCO4)CC3)c2O1` [Compound 430a, 3-[2-({4-[(2S)-2-(5-chloropyridin-2-yl)-2-methyl-2H-1,3-benzodioxol-4-yl]piperidin-1-yl}methyl)-3-{[(2S)-oxetan-2-yl]methyl}-3H-imidazo[4,5-c]pyridin-6-yl]-4,5-dihydro-1,2,4-oxadiazol-5-one], the EC50 stood at 0.04 nM.

With `C[C@]1(c2ccc(Cl)cn2)Oc2cccc(C3CCN(Cc4nc5cc(-c6nnc(C#N)[nH]6)nnc5n4C[C@@H]4CCO4)CC3)c2O1` [Compound 482a, 5-[6-({4-[(2S)-2-(5-chloropyridin-2-yl)-2-methyl-2H-1,3-benzodioxol-4-yl]piperidin-1-yl}methyl)-7-{[(2S)-oxetan-2-yl]methyl}-7H-imidazo[4,5-c]pyridazin-3-yl]-4H-1,2,4-triazole-3-carbonitrile], the EC50 came to 0.032 nM.

`Fc1cc(Cl)ccc1COc1ccc(F)c(N2CCN(Cc3nc4cc(-c5nnc(C(F)(F)F)[nH]5)nnc4n3C[C@@H]3CCO3)CC2)n1` [Compound 502a, 1-{6-[(4-chloro-2-fluorophenyl)methoxy]-3-fluoropyridin-2-yl}-4-[(7-{[(2S)-oxetan-2-yl]methyl}-3-[5-(trifluoromethyl)-4H-1,2,4-triazol-3-yl]-7H-imidazo[4,5-c]pyridazin-6-yl)methyl]piperazine]: it took 0.092 nM to reach a half-maximal effect (EC50).

`Cc1nnc(-c2ccc3c(c2)nc(CN2CCC(c4cccc5c4OC(C)(c4ccc(Cl)cc4F)O5)CC2)n3C[C@@H]2CCO2)[nH]1` (stereo partly drawn) [Compound 243a, 2-({4-[2-(4-chloro-2-fluorophenyl)-2-methyl-2H-1,3-benzodioxol-4-yl]piperidin-1-yl}methyl)-5-(5-methyl-4H-1,2,4-triazol-3-yl)-1-{[(2S)-oxetan-2-yl]methyl}-1H-1,3-benzodiazole] displayed an EC50 of 0.052 nM.

On to `Cc1ccc(C(=O)Nc2ccc3c(c2)nc(CN2CCC(c4cccc(OCc5ccc(Cl)cc5F)n4)CC2)n3C[C@@H]2CCO2)cn1` [Compound 173a, N-{2-[(4-{6-[(4-chloro-2-fluorophenyl)methoxy]pyridin-2-yl}piperidin-1-yl)methyl]-1-{[(2S)-oxetan-2-yl]methyl}-1H-1,3-benzodiazol-5-yl}-6-methylpyridine-3-carboxamide], for which the midpoint of the response, the EC50, lay at 0.26 nM.

For `CO[C@H](C)Cn1c(CN2CCC(c3cccc4c3O[C@@](C)(c3ccc(Cl)cc3F)O4)CC2)nc2cc(-c3noc(=O)[nH]3)ncc21` [Compound 419a, 3-[2-({4-[(2S)-2-(4-chloro-2-fluorophenyl)-2-methyl-2H-1,3-benzodioxol-4-yl]piperidin-1-yl}methyl)-3-[(2R)-2-methoxypropyl]-3H-imidazo[4,5-c]pyridin-6-yl]-4,5-dihydro-1,2,4-oxadiazol-5-one], a half-maximal response (EC50) required 0.072 nM. This EC50 lies about 3.6-fold lower than the previous one.

In turn, `CO[C@H](C)Cn1c(CN2CCC(c3cccc4c3O[C@@](C)(c3ccc(Cl)cn3)O4)CC2)nc2cc(-c3nnc(C(F)(F)F)[nH]3)nnc21` [Compound 473a, 5-chloro-2-[(2S)-4-[1-({7-[(2R)-2-methoxypropyl]-3-[5-(trifluoromethyl)-4H-1,2,4-triazol-3-yl]-7H-imidazo[4,5-c]pyridazin-6-yl}methyl)piperidin-4-yl]-2-methyl-2H-1,3-benzodioxol-2-yl]pyridine] had an EC50 of 0.46 nM.

In turn, `Fc1cc(Cl)ccc1COc1cccc(C2CCN(Cc3nc4cc(-c5nnc(C(F)(F)F)[nH]5)cnc4n3C[C@@H]3CCO3)CC2F)n1` (stereo partly drawn) [Compound 500a, 2-[(4-chloro-2-fluorophenyl)methoxy]-6-[(3,4-trans)-3-fluoro-1-[(3-{[(2S)-oxetan-2-yl]methyl}-6-[5-(trifluoromethyl)-4H-1,2,4-triazol-3-yl]-3H-imidazo[4,5-b]pyridin-2-yl)methyl]piperidin-4-yl]pyridine] yielded an EC50 of 0.078 nM.

Take `Fc1cc(Cl)ccc1COc1cccc(C2=CCN(Cc3nc4cc(-c5nnc(C(F)(F)F)[nH]5)ncc4n3C[C@@H]3CCO3)CC2)c1` [Compound 307a, 4-{3-[(4-chloro-2-fluorophenyl)methoxy]phenyl}-1-[(3-{[(2S)-oxetan-2-yl]methyl}-6-[5-(trifluoromethyl)-4H-1,2,4-triazol-3-yl]-3H-imidazo[4,5-c]pyridin-2-yl)methyl]-1,2,3,6-tetrahydropyridine]: a half-maximal effect (EC50) was put at 0.26 nM.

In the case of `CC1(c2ccc(Cl)cc2F)Oc2cccc(C3CCN(Cc4nc5cc(-c6nnc(C(F)F)[nH]6)c(F)cc5n4C[C@@H]4CCO4)CC3)c2O1` (stereo partly drawn) [Compound 249a, 2-({4-[2-(4-chloro-2-fluorophenyl)-2-methyl-2H-1,3-benzodioxol-4-yl]piperidin-1-yl}methyl)-5-[5-(difluoromethyl)-4H-1,2,4-triazol-3-yl]-6-fluoro-1-{[(2S)-oxetan-2-yl]methyl}-1H-1,3-benzodiazole], the EC50 is 0.27 nM.

Turning to `CCc1nnc(-c2cnc3c(c2)nc(CN2CCC(c4cccc5c4O[C@@](C)(c4ccc(Cl)cc4F)O5)CC2)n3C[C@@H]2CCO2)[nH]1` [Compound 352a, 4-[(2S)-2-(4-chloro-2-fluorophenyl)-2-methyl-2H-1,3-benzodioxol-4-yl]-1-{[6-(5-ethyl-4H-1,2,4-triazol-3-yl)-3-{[(2S)-oxetan-2-yl]methyl}-3H-imidazo[4,5-b]pyridin-2-yl]methyl}piperidine], a half-maximal effect (EC50) was put at 0.43 nM.

The term EC50 denotes the concentration needed to bring the measured effect to its halfway point. Read a high EC50 as a need for much substance.
